The values below come from patent US20250082752A1, “COMPOUNDS, TARGETS, AND METHODS FOR MODULATING LYTIC GRANULE CONVERGENCE IN CYTOTOXIC CELLS TO PROMOTE BYSTANDER KILLING IN CELLULAR THERAPIES” (THE TRUSTEES OF COLUMBIA UNIVERSITY IN THE CITY OF NEW YORK, priority 2022, published 2025).

One assay concerns NK cells. As to the kind of experiment: Lytic granule dispersion in pretreated NK cells seeded on surfaces coated with activating antibodies. The format is cell-based. As to conditions: NK cells pretreated at 5 μM for 30 min. An excerpt:
FIGS. 59B-59E are magnified image of marked areas in FIG. 59A focusing on cells with dispersed granule. Perforin staining is shown in green, and alpha-tubulin is staining is shown in red.
FIGS. 60B-60E are magnified image of marked areas in FIG. 60A focusing on cells with dispersed granule. The position of the granules is indicated by perforin staining.
FIGS. 61B-61E are magnified image of marked areas in FIG. 61A focusing on cells with dispersed granule. The position of the granules is indicated by perforin staining.
NK cells were pretreated with N-{1-[(4-chlorophenyl)methyl]piperidin-4-yl}prop-2-enamide (FIG. 56) at […] for 30 min. The treated NK cells were seeded onto surfaces coated with activating antibodies.
NK cells were pretreated with 1-(prop-2-enamido)-N-[(thiophen-2-yl)methyl]cyclohexane-1-carboxamide (FIG. 57) at 5 μM for 30 min. The treated NK cells were seeded onto surfaces coated with activating antibodies.
NK cells were pretreated 1-[3-(4-fluorophenyl) prop-2-enoyl]-4-hydroxypyrrolidine-2-carboxylic acid (FIG. 58) at 5 μM for 30 min. The treated NK cells were seeded onto surfaces coated with activating antibodies.

The subject of assay [1] is YTS cells. As to the kind of experiment: Golgi fragmentation and granule dispersion in LPA-stimulated YTS cells. The format is cell-based. The settings on record: 20 μM LPA for two hours, sodium salt. The procedure: One way to induce the Golgi outpost formation through elongation and fission, is using LPA, which is predicted to activate a pathway dependent on transforming protein RhoA and effectively induce the formation of Golgi Outpost. […] The cells were also tested for Cr-51 (FIG. 14C). […] This dispersion was thus increased in quantity and spread on the GCC2 KO cells.

The subject of assay [2] is NK cell. As to conditions: previous work, cited from earlier work.
Assay [3] deals with NK cell. Description: Durability/reversibility of deconvergence after the inhibitor is removed from media. The assay is classed as cell-based. The settings on record: NK cell activation on activating glass surface at different times after removal from media. Here is the method: (§1) YTS cells were treated with DMSO or one of three different dynein inhibitors (Ciliobrevin-D, Dynapyrazole-A, or Compound 3016) and then incubated on an activating glass surface for 30 min. Cells were fixed, stained for a-tubulin, F-actin, perforin, and DNA (DAPI), and imaged via spinning disc confocal microscopy. Examples of individual cells (top) showing all stains and a broader field (bottom) at lower magnification showing only perforin to give an impression of the degree of granule convergence in a field of cells (FIG. 10A). […] Points show mean+SD of 3 independent experiments measuring >20 cells each.
Reversibility time for convergence is determined by activating small molecule inhibitor pre-treated NK cells on anti-NKp30/anti-CD18-coated or anti-CD28/anti-CD18 glass surfaces in the absence of the compound of interest. In short-term live-cell experiments, cells are labeled with lysotracker and fluorescent protein-conjugated tubulin; for longer term experiments, the more durable lytic granule label, LAMP1-mApple, is used. The efficiency of non-directional degranulation will be measured with the previously disclosed LAMP1-pHluorin cell line, which marks the lytic granule pH change that accompanies degranulation. […]

The subject of assay [4] is YTS cells. As to the kind of experiment: Lytic granule convergence/dispersion in dynein inhibitor-treated YTS cells on an activating glass surface (confocal microscopy). The assay is classed as cell-based. As to conditions: dynein inhibitor vs DMSO, activating glass surface 30 min. The procedure: as §1
This work served as proof-of-concept that influencing positional degranulation can be used to harness the NK cell lytic machinery.
To identify the best candidates to control lytic granule positioning, a high throughput screen (HTS) for activation-induced lytic granule convergence was developed. This is a novel method that utilizes a simple shape-based approach (a grid based on the a-tubulin defined NK cell footprint and Euclidean distance from the MTOC) to generate an estimated mean granule distance (eMGD) from the MTOC (FIGS. 11A-11C). This approach allows us to quickly screen large numbers of molecular candidates. MGD will be measured in 3D in fixed NK cells activated on an anti-NKp30/anti-CD18 or anti-CD28/anti-CD18 coated glass surface over a range of activation times, conditions, and NK cell types. Cells will be stained to identify the MTOC (for example, pericentrin) and lytic granules (mature perforin). The measured MGD is an indicator of convergence.

Assay [5] has as its system YTS cells. As to the kind of experiment: Confocal microscopy of granule dispersion in YTS cells after Centrinone or CFI400495. The assay is classed as cell-based. The settings on record: YTS cells after treatment with Centrinone or CFI400495. Here is the method: (§2) Centrinone and CFI400495 are high affinity and selective PLK4 inhibitors that induce depletion of the centrosome and cell cycle arrest. YTS cells were treated for 5 days with Centrinone 5 nM or CFI400495 50 nM. […] For this experiment, 5×10^5 cells/ml YTS cells were incubated during 5 days Centrinone 5 nM or CFI400495 50 nM, every 24 hours the media were replaced with fresh media containing similar amounts of the drug. On day 5, cells were assessed by microscopy for gamma-tubulin or alpha-tubulin.

The test system of assay [6] is YTS cells. As to the kind of experiment: CD107a degranulation of treated YTS cells after conjugation with 721.221 target cells. The assay is classed as cell-based. As to conditions: 5 days, Centrinone 5 nM or CFI400495 50 nM. The procedure:
CD107a (also known as LAMP-1) is the standard to measure the process of degranulation. The more CD107a is expressed on the surface of the cell after stimulation, the more granules have been released. This is limited to the immunological synapse, in part secondary to the convergence process. CD107a upregulation is measured via flow cytometry after PMA/lonomycin activation and can be measured following target cell conjugation. […] The latter requires synapse formation and engagement of receptors for downstream activation signaling. Differences in results between these two approaches (target cell conjugation versus PMA/lonomycin) map the candidate's impact to early (synapse formation and signaling) or late (mechanics of) degranulation.
as §2

Assay [7] has as its system YTS cells. As to the kind of experiment: Number of MTOC (alpha-tubulin hyper densities) in YTS cells treated with PLK4 inhibitors. The assay is classed as cell-based. As to conditions: 5 days, Centrinone 5 nM or CFI400495 50 nM. Here is the method:
as §2

Assay [8] relates to YTS cells. As to the kind of experiment: Granule distance to MTOC in Dynapyrazole A-treated YTS cells on a CD28/CD18 activating surface. The format is cell-based. As to conditions: 5 μM for 30 minutes, washed. Here is the method:
(§3) YTS cells are treated with 5 μM of Dynapyrazole A for 30 minutes, then washed twice with culture media. Then cells are stimulated either with 721.221 target cells, K562 target cells, or with an activating surface (coverslip coated with anti CD18 and/or anti CD28).

Assay [9] relates to YTS cells. Description: Mean granule distance (MGD) and automated estimated MGD (eMGD) from the MTOC in activated YTS cells. The assay is classed as cell-based. As to conditions: YTS cells activated on glass via CD18/CD28 for 30 minutes, p<0.01. An excerpt: FIGS. 11A-11H depict exemplary results related to mean granule distance (MGD) and automated estimated mean granule distance (eMGD). FIG. 11A depicts an exemplary high-resolution confocal imaging of lytic granules (labeled by perforin) and tubulin, which allows for automated intensity threshold-based identification of granules as shown in FIG. 11B (outlines indicate for granules and the microtubule-organizing center (MTOC)). FIG. 11C depicts the equation for calculating […] using x and y coordinates of each granule relative to the MTOC. […] FIG. 11E is an exemplary image of a fixed NK cell from the screen (labeled with perforin and tubulin) to which the Euclidean method for assessing granule localization relative to a total cell, tubulin-defined footprint of FIG. 11F can be applied. eMGD is then calculated using a Matlab script and the formula shown in FIG. 11G. […]
To identify the best candidates to control lytic granule positioning, a high throughput screen (HTS) for activation-induced lytic granule convergence was developed. […] MGD will be measured in 3D in fixed NK cells activated on an anti-NKp30/anti-CD18 or anti-CD28/anti-CD18 coated glass surface over a range of activation times, conditions, and NK cell types. […] The measured MGD is an indicator of convergence. […]

A further assay relates to bystander K562 cells. Description: Bystander killing by Dynapyrazole A-pretreated YTS cells. The format is cell-based. The settings on record: YTS cells pretreated with 5 μM for 30 minutes.
Text: The graph is representative of three independently performed biological repeats.
To assess tumor cell and bystander killing, TheCOS comprises NK cell lines, tumor cell targets, and NK-resistant tumor cell bystanders. LAMP1-mApple-pHluorin-expressing NK cell lines enable visualization of granules (mApple) and degranulation events (pHluorin transition). mTurquoise2 mark susceptible tumor cells, and Citrine mark bystander cells. SYTOX deep red is included in the hydrogel to identify the nuclei of dying cells. A cell positive for Turquoise and SYTOX fluorescence denote a dying tumor cell, whereas a cell positive for Citrine and SYTOX indicate a dying bystander cell. 1×10^5 target tumor cells and 1×10^5 NK cells (for an initial 1:1 tumor to effector ratio)+/−1×10^6 bystander cells are deposited into separate thermally responsive hydrogel layers and then encased in thermally stable hydrogel. This sandwich is then deposited the into our imaging chamber. Prewarmed media is added to collapse the hydrogel layers.
as §3

“Also recorded” adds a separate entry of the source.

`C=CC(=O)NC1(C(=O)NCc2cccs2)CCCCC1` [Compound 7779, 1-(prop-2-enamido)-N-[(thiophen-2-yl)methyl]cyclohexane-1-carboxamide]: the lytic granule dispersion result in the assay with NK cells was “induce lytic granule dispersion; also recorded: lytic granule dispersion induced”.
Turning to “1-Oleoyl lysophosphatidic acid sodium salt [LPA]”, in the assay with YTS cells [1], the Golgi fragmentation result was “increase in Golgi fragments; also recorded: Golgi fragmentation” and the “granule dispersion / convergence” value is reported as “blocks convergence; also recorded: granule dispersion”.
Regarding `N#CC(C(=O)c1ccc(Cl)cc1Cl)=C1NC(=O)c2ccc(Cl)cc2N1` [Ciliobrevin D, 2-(7-chloro-4-oxo-3,4-dihydroquinazolin-2 (1H)-ylidene)-3-(2,4-dichlorophenyl)-3-oxopropanenitrile], the “killing of bystander cells” value in the assay with NK cell [2] (UGATm and other single cell assays) was “promoted killing of bystander cells”. The “inhibition of lytic granule convergence (previously used)” value in the assay on NK cell [2] was “inhibit lytic granule convergence”. Also, the “durability of deconvergence after inhibitor removed from media” value is recorded as “Neither inhibitor, however, promotes sustained deconvergence” with NK cell [3] and “quickly reversible” in the assay on NK cell [3] (listed as CIL-D). The “lytic granule convergence / dispersion” value with YTS cells [4] was “lytic granule dispersion”; with YTS cells [4] (listed as CIL-D), “highly effective in preventing lytic granule convergence”.
On to `O=C(O)C1CC(O)CN1C(=O)C=Cc1ccc(F)cc1` (stereo not shown) [Compound 3977, 1-[3-(4-fluorophenyl)prop-2-enoyl]-4-hydroxypyrrolidine-2-carboxylic acid], for which the lytic granule dispersion entry in the assay on NK cells was “induce lytic granule dispersion; also recorded: lytic granule dispersion induced”.
Same read-out and setting: the entry for `C=CC(=O)NC1CCN(Cc2ccc(Cl)cc2)CC1` [Compound 5814, N-{1-[(4-chlorophenyl)methyl]piperidin-4-yl}prop-2-enamide] is “induce lytic granule dispersion; also recorded: lytic granule dispersion induced”.
As to `COc1c(Nc2cc(C)[nH]n2)nc(Sc2ccc(S(=O)(=O)Cc3cccc([N+](=O)[O-])c3F)cc2F)nc1N1CCOCC1` [Centrinone, 2-[[2-Fluoro-4-[[(2-fluoro-3-nitrophenyl)methyl]sulfonyl]phenyl]thio]-5-methoxy-N-(5-methyl-1H-pyrazol-3-yl)-6-(4-morpholinyl)-4-pyrimidinamine], the “granule dispersion (confocal microscopy images)” value in the assay on YTS cells [5] is given as “more disperse granules”. Also, in the assay with YTS cells [6], the “degranulation (CD107a expression)” value was “increases degranulation”. Also, the “number of MTOC (alpha Tubulin hyper densities)” value in the assay with YTS cells [7] was “increase number of mTOC”.
`N#Cc1c(C2(c3ccc(Cl)cc3)CC2)nn2c1[nH]c(=O)c1cc(I)ccc12` [Dynapyrazole A, 2-[1-(4-Chlorophenyl)cyclopropyl]-4,5-dihydro-7-iodo-5-oxopyrazolo[1,5-a]quinazoline-3-carbonitrile]: the “lytic granule dispersion (granule distance to MTOC)” value in the assay with YTS cells [8] is on record as “induces lytic granule dispersion”; in the assay on YTS cells [8] (listed as Dynapyrazole-A) it was “high lytic granule dispersion”. The “estimated mean granule distance (eMGD), change vs DMSO” value with YTS cells [9] (GE InCell Analyzer) is “Increase”. Also, in the assay on YTS cells [9] (confocal microscope), the “mean granule distance (MGD), change vs DMSO” value was “Increase”. The figures for the “lytic granule convergence / dispersion” value in the assay with YTS cells [4] (listed as Dynapyrazole-A) and in the assay on YTS cells [4] (listed as dynapyrazole-A) were “lytic granule dispersion” and “highly effective in preventing lytic granule convergence”, respectively. In addition, the “killing of bystander K562 cells” value in the assay on bystander K562 cells was “kill bystander K562 cells”; in the assay with bystander K562 cells (listed as Dynapyrazole-A), “kill bystander K652 cells”.
